From patent US20250027956A1, “Improved Gamma-Secretase Inhibitor Screening Assays” (VIB VZW, priority 2021, published 2025)

Legend:
Npc1 cats = conditions: intrathecal 120 mg every 2 weeks; cited from earlier work
PSENdKO cells [1] = assay: Lysosomal Ca2+ content, Fura-2AM loaded cells challenged with GPN, PSENdKO cells; type: cell-based, mouse; set-up: lysosomal Ca2+ content: dose or concentration left out as unconfirmed
Excerpt: Diluent treatment alone (in most cases DMSO, water for the cyclodextrin) was used as vehicle control.
Briefly, the web-based CRISPR design tool was used to select the sequence to be targeted in mouse PSEN1 and PSEN2 (i.e. 5′-[…]-3′ and 5′-[…]-3′, respectively). Oligo pairs encoding guide sequences (obtained from Integrated DNA Technologies, IDT) were annealed and ligated into the pX330 plasmid (Addgene) according to the Zhang's laboratory protocol (https://www.addgene.org/crispr/zhang/). MEF cells were then transfected with the pX330-PSEN1 and PX330-PSEN2, using Fugene HD (Promega), in accordance with the manufacturer protocol. Selection of PSENdKO clones was achieved through serial dilution and confirmed by WB analysis. Further depletion of APP in different PSENdKO clones was achieved through electroporation of RNP complexes. […]
Cells were rinsed three times and left to equilibrate for at least 15-20 min (RT). […] Briefly, cells were segmented manually and fluorescence intensities were measured over time. Fura-2 signals were corrected to obtain ΔF/F0 (F0 being the initial signal recorded). For each cell, the area under the curve, corresponding to the aforementioned stimulation, was measured using GraphPad Prism.

PSENdKO cells [2] = assay: Confocal immunofluorescence (compartment size, Mander's colocalization, filipin) in PSENdKO cells; type: cell-based, mouse
Experimental: For OSW-1 (30310-1, Sanbio/Cayman Chemical), cells were treated overnight with 10 nM. Diluent treatment alone (in most cases DMSO, water for the cyclodextrin) was used as vehicle control. KO cell lines: PSEN1 and 2 KO cell lines (PSENdKO) cell lines were established as described in ([…] al 2020). Briefly, the web-based CRISPR design tool was used to select the sequence to be targeted in mouse PSEN1 and PSEN2 ([NT] and [NT], respectively). Oligo pairs encoding guide sequences (obtained from Integrated DNA Technologies, IDT) were annealed and ligated into the pX330 plasmid (Addgene) according to the Zhang's laboratory protocol (https://www.addgene.org/crispr/zhang/). MEF cells were then transfected with the pX330-PSEN1 and PX330-PSEN2, using Fugene HD (Promega), in accordance with the manufacturer protocol. Selection of PSENdKO clones was achieved through serial dilution and confirmed by WB analysis. Further depletion of APP in different PSENdKO clones was achieved through electroporation of RNP complexes. Single guide RNA (sgRNAs) were designed to either target exon 2 ([NT]) or exon 3 ([NT]). The Neon Transfection System (ThermoFisher Scientific, one pulse, 1650 V, 20 ms) was used to electroporate 150 000 cells with 10 pmol of Cas 9 (IDT) and 20 pmol of single guide RNA (IDT). As above, cells were amplified and selection of independent APPKO clones was performed with serial dilutions and WB characterization. All clones of interest were sequenced using Sanger sequencing. […] Primary antibodies diluted in the same blocking buffer were incubated overnight at 4° C. Following PBS washing steps, (goat- or donkey-) secondary antibodies conjugated with Alexa fluor dyes (Alexa 488, 568, or 647, all ThermoFisher Scientific) diluted in the blocking buffer were incubated for 1 h, RT. Coverslips were then mounted with Mowiol (Sigma). When cholesterol labelling was performed, fixed cells were treated with 200 μg·ml-1 filipin (F4767, Sigma) for 2 h at RT, prior to permeabilization. Acquisition: Z stack images (spacing 2 μm), or a median plan were acquired on a Nikon 1AR connected to an inverse Nikon Ti-2000 equipped with an oil-immersion plan APO 60× objective lenses with 1.40 NA. Data were collected using Nikon Imaging Software. […] Image analysis: All image analysis was done using Image J software (Schindelin et al 2012; Schneider et al 2012). To measure the area of the organelle of interest (early endosomes-EEA1; lysosomes-Lamp1; retromer-VPS35 . . . ), segmentation was realized using automatic thresholding. The following masks were used: Mean (EEA1), Ostu (Lamp1), Intermodes (VPS35). Overlap of signal of interests were quantified with Manders colocalisation index (Plugin Jacob, (Bolte and Cordelieres 2006)). When indicated, co-localization data was normalized to the reference group for multiple comparisons.

Npc1-null cells = conditions: cited from earlier work
LE/Ly cholesterol = conditions: cited from earlier work
WT MEFs = assay: Lysosomal Ca2+ content, Fura-2AM loaded cells challenged with GPN, WT cells; type: cell-based, mouse
Experimental: Cells were treated with the following drugs, usually for 4 days, unless otherwise stated: DAPT (2634/10, Tocris) 1 μM final; Inhibitor X (565771-250 μg, Calbiochem/Merck) 1 μM final; β-Secretase Inhibitor IV (565788, Calbiochem/Merck) 2 μM final, (2-Hydroxypropyl)-γ-cyclodextrin (H125-5G-I, Sigma Aldrich) 1 mM final; Adam 10 inhibitor G1254023X (SML0789, Sigma Aldrich) 3 μM final. For OSW-1 (30310-1, Sanbio/Cayman Chemical), cells were treated overnight with 10 nM. Diluent treatment alone (in most cases DMSO, water for the cyclodextrin) was used as vehicle control.
Cytosolic response: Ca2+ responses were measured as previously described in Coen et al 2012. Briefly, cells (0.005 to 0.01×106) were seeded two to three days prior to the experiment on glass coverslips (631-0153, VWR). On the day of recording, cells were rinsed three times in Ringer solution (155 mM NaCl, 5 mM KCl, 2 mM MgCl2, 2 mM CaCl2, 10 mM Glucose, 10 mM HEPES, 2 mM NaH2PO4·2H20; pH 7.3), and loaded 1 μM Fura2-AM (F1221, ThermoFisher Scientific) for 30 min (RT). Cells were rinsed three times and left to equilibrate for at least 15-20 min (RT). All acquisitions were carried out in Ringer Ca2+ free solution (same as above, albeit the 2 mM CaCl2 were replaced by 2 mM EGTA). During experiments, cells were challenged with different drugs, such as Thapsigargin (T7459, ThermoFisher Scientific, 1 μM final), GPN (ab145914, abcam, 100 μM final for MEFs, 500 μM for neurons), MLSA1 (Cat. No. 4746, Tocris, 20 μM final) or lonomycin (10634, Sigma Aldrich, 1 μM final). Images were acquired every 5 sec for 8-10 min, using an Olympus IX81 using an UAPO/340 40× oil objective (1.35 NA), operated by CellR Software (Olympus). Recordings were done using 340 and 380 nm excitation, and 530 nm emission filters. Image processing was performed using Image J Software (Schindelin et al 2012; Schneider et al 2012). Briefly, cells were segmented manually and fluorescence intensities were measured over time. Fura-2 signals were corrected to obtain ΔF/F0 (F0 being the initial signal recorded). For each cell, the area under the curve, corresponding to the aforementioned stimulation, was measured using GraphPad Prism.

NPC disease models = conditions: cited from earlier work
Npc1 mice = conditions: oral; cited from earlier work
cats = conditions: cited from earlier work
NPC patients = conditions: clinical trials; cited from earlier work
[3] = overnight, 10 nM, data not shown

2-Hydroxypropyl-beta-cyclodextrin [HP-beta-CD]
neurological dysfunction and lipid accumulation in neurons (Npc1 cats): reduced neurological dysfunction and lipid accumulation in neurons

2-hydroxypropyl-γ-cyclodextrin [HPγCD]
lysosomal Ca2+ content (PSENdKO cells [1]; 4 days): fully restored lysosomal Ca2+ content
EEA1 area (PSENdKO cells [2]; 1 mM, 4 days): reduced EEA1 area
accumulation of membrane-tethered APP fragments in Lamp1-positive LE/Lys (PSENdKO cells [2]; 1 mM, 4 days): strongly reduced
colocalization of VPS35 with Lamp1 (PSENdKO cells [2]; 1 mM, 4 days): decreased colocalization of VPS35
filipin staining in Lamp1-positive LE/Lys (PSENdKO cells [2]; 1 mM, 4 days): Reduced filipin staining
intracellular free cholesterol levels and lysosome changes (Npc1-null cells): reduce intracellular free cholesterol levels and normalize the lysosome changes

C=CCNC1=C2C[C@@H](C)C[C@H](OC)[C@H](O)[C@@H](C)/C=C(\C)[C@H](OC(N)=O)[C@@H](OC)/C=C\C=C(/C)C(=O)NC(=CC1=O)C2=O [17-AAG]
clearance of cholesterol from LE/Ly (LE/Ly cholesterol): clearance of cholesterol from LE/Ly

CC(C)c1cc(C(=O)N2Cc3ccc(CN4CCN(C)CC4)cc3C2)c(O)cc1O [AT13387]
clearance of cholesterol from LE/Ly (LE/Ly cholesterol): clearance of cholesterol from LE/Ly

CCNC(=O)c1noc(-c2cc(C(C)C)c(O)cc2O)c1-c1ccc(CN2CCOCC2)cc1 [AUY922]
clearance of cholesterol from LE/Ly (LE/Ly cholesterol): clearance of cholesterol from LE/Ly

CC(C)c1cc(-c2n[nH]c(=O)n2-c2ccc3c(ccn3C)c2)c(O)cc1O [Ganetespib]
clearance of cholesterol from LE/Ly (LE/Ly cholesterol): clearance of cholesterol from LE/Ly

Cc1ccc(NC(=O)c2ccc(CN3CCN(C)CC3)cc2)cc1Nc1nccc(-c2cccnc2)n1 [Imatinib]
APP-CTFs in VPS35-positive organelles (PSENdKO cells [2]): significant decrease of APP-CTFs in VPS35-positive organelles
VPS35-LAMP1 co-localization (PSENdKO cells [2]; vs DMSO): lowered VPS35-LAMP1 co-localization

CC(C)C[C@H](NC(=O)[C@H](Cc1ccccc1)C[C@@H](O)[C@H](Cc1ccccc1)NC(=O)OC(C)(C)C)C(=O)N[C@@H](Cc1ccccc1)C(N)=O [InhibitorX]
lysosomal Ca2+ content (WT MEFs; WT cells, 1 μM, 4 days, normalized to DMSO): reduced

Cc1[nH]c2ccccc2c1CCNCc1ccc(/C=C/C(=O)NO)cc1 [LBH589]
cholesterol accumulation (NPC disease models): efficiently correct cholesterol accumulation

CCCCN1C[C@H](O)[C@@H](O)[C@H](O)[C@H]1CO [Miglustat, N-butyl-deoxynojirimycin]
accumulation of gangliosides in the brain (Npc1 mice): reduced the accumulation of gangliosides in the brain
increase of lifespan (Npc1 mice): approximately 33%
neurological progression of the disease (Npc1 mice): slowed the neurological progression of the disease
accumulation of gangliosides in the brain (cats): reduced accumulation of gangliosides in the brain
increase of lifespan (cats): approximately 74%
onset of neurological symptoms (cats): delayed onset of neurological symptoms
neurological outcome (e.g. dysphagia, supranuclear gaze palsy) (NPC patients): neurological improvement or stabilization

COc1ccc(C(=O)O[C@H]2[C@H](O[C@@H]3[C@@H](OC(C)=O)[C@H](O[C@H]4C[C@H]5[C@@H]6CC=C7C[C@@H](O)CC[C@]7(C)[C@H]6CC[C@]5(C)[C@@]4(O)[C@H](C)C(=O)CCC(C)C)OC[C@@H]3O)OC[C@@H](O)[C@@H]2O)cc1 [OSW-1]
lysosomal Ca2+ dysfunction (PSENdKO cells [1]; [3]): nor did it rescue lysosomal Ca2+ dysfunction
lysosomal cholesterol staining (PSENdKO cells [2]; [3]): did not decrease lysosomal cholesterol staining

CC1(C)CC(=O)c2c(C(F)(F)F)nn(-c3ccc(C(N)=O)c(N[C@H]4CC[C@H](O)CC4)c3)c2C1 [SNX2112]
clearance of cholesterol from LE/Ly (LE/Ly cholesterol): clearance of cholesterol from LE/Ly

CCc1cc(C(N)=O)ccc1-n1nc(C(C)C)c2c(-n3cnc(-c4cnn(C)c4)c3)ccnc21 [TAS-116]
clearance of cholesterol from LE/Ly (LE/Ly cholesterol): clearance of cholesterol from LE/Ly

Nc1ccc(C(=O)Nc2cccc(-c3nc(N4CCOCC4)c4oc5ncccc5c4n3)c2)cn1 [YM201636]
Lysosomal Ca2+ levels (WT MEFs; WT cells, 2 μM, 2 h, 100 μM GPN): reduced

[O-][n+]1cccc(/C(Cl)=N/OC[C@H](O)CN2CCCCC2)c1 [arimoclomol]
clearance of cholesterol from LE/Ly (LE/Ly cholesterol): same effect

CO/C1=C\C(C)=C\[C@@H](C)[C@@H](O)[C@@H](C)C/C(C)=C/C=C/[C@H](OC)[C@@H]([C@@H](C)[C@@H](O)[C@H](C)[C@@]2(O)C[C@@H](O)[C@H](C)[C@@H](C(C)C)O2)OC1=O [bafilomycin1]
lysosomal Ca2+ content (WT MEFs; full alkalinization, compared with PSENdKO cells): equally affected lysosomal Ca2+ content as observed in PSENdKO cells

CC(/C=C/C(=O)NO)=C\[C@@H](C)C(=O)c1ccc(N(C)C)cc1 [trichostatin A]
cholesterol accumulation (NPC disease models): efficiently correct cholesterol accumulation
